These results are taken from US20170157135A1 (Novogen Limited, priority 2013, published 2017).

The test system of one test is SK-Mel-28 melanoma cells. Nature of the test: Anti-proliferative assay (cell-titre luminescent), SK-Mel-28. Format: cell-based. Particulars: Homo sapiens; SK-Mel-28, 72 hours, luminescence. In a few lines: (§1)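 Luminescence read-out (cell-titre reagent, 30 min) after 72 h compound exposure at six concentrations from 0.1 to 30 μM. Viability was normalized to vehicle control, and EC50 was derived by nonlinear variable-slope dose-response regression.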

The target of a further test is Tm5NM1 (Homo sapiens, UniProt P06753). Nature of the test: Pyrene-based actin filament depolymerization assay, Tm5NM1-containing actin filaments. Type of test: biochemical. The conditions noted are these: 50 μM compound, p=0.1 vs F-actin alone. How it is done:
FIG. 1: Impact of compound 2026 on Tm5NM1-regulated actin-filament depolymerization kinetics. (A and C) Depolymerization time course of 6 μM actin filaments (35% pyrene labelled) diluted 12-fold into F-actin buffer (100 mM NaCl, 10 mM Tris-HCl pH 7.0, 2 mM MgCl2, 1 mM EGTA, 0.2 mM CaCl2, 0.2 mM ATP, 0.5 mM DTT, 0.01% (v/v) NaN3) in the presence or absence of saturating amounts (10 μM) of Tm5NM1. Final concentration of F-actin and Tm5NM1 was 0.5 μM and 0.83 μM respectively. Tm5NM1 was pre-incubated with 50 μM compound 2026 or 1% (v/v) DMSO prior to mixing with F-actin. Depolymerization data is normalized to the initial fluorescence value. (B and D) Initial rates (V0) of depolymerization for F-actin alone or Tm5NM1/F-actin, in the presence of compound 2026. Initial rates of depolymerization were determined from the first 3600 s, fitted to a linear regression model. Data represents mean±SEM, averaged from n>6 replicates.
A brief overview and rationale of the assay is as follows: to promote depolymerization, pyrene-labelled actin filaments were diluted below the critical concentration of the pointed end (0.5 μM, as defined by Pollard et al., 1986). A decline in fluorescence was measured over time as actin monomers dissociate. […]
The depolymerization of F-actin alone and F-actin-coated with Tm5NM1 was then measured in the presence of compound and initial rates of depolymerization were compared. […]

Another test has as its system A549 lung (NSLC) cells. Nature of the test: Anti-proliferative assay (cell-titre luminescent), A549. Format: cell-based. The conditions noted are these: Homo sapiens; A549, 72 hours, luminescence. The essentials:
as §1

Test [1] concerns CaCo2 colorectal cancer cells. The test can be described thus: Anti-proliferative assay (cell-titre luminescent), CaCo2. Type of test: cell-based. The conditions noted are these: Homo sapiens, Caco-2; CaCo2, 72 hours, luminescence. In a few lines:
as §1

For test [2], the system named is DU145 prostate cancer cells. The test can be described thus: Anti-proliferative assay (cell-titre luminescent), DU145. Type of test: cell-based. Particulars: Homo sapiens, DU-145; DU145, 72 hours, luminescence. The essentials:
as §1

For test [3], the system named is MDA-MB-231 breast cancer cells. The test can be described thus: Anti-proliferative assay (cell-titre luminescent), MDA-MB-231. Type of test: cell-based. The conditions noted are these: Homo sapiens; MDA-MB-231, 72 hours, luminescence. In a few lines: as §1
For test [4], the system named is PC3 prostate cancer cells. Nature of the test: Anti-proliferative assay (cell-titre luminescent), PC3. Type of test: cell-based. Particulars: PC3, 72 hours, luminescence. The essentials: as §1
The subject of test [5] is SK-N-SH neuroblastoma cells. Nature of the test: Anti-proliferative assay (cell-titre luminescent), SK-N-SH. Format: cell-based. The conditions noted are these: Homo sapiens, 72 hours, luminescence. The essentials: as §1

Sequence of Tm5NM1 (P06753 1-248 isoform P06753-2): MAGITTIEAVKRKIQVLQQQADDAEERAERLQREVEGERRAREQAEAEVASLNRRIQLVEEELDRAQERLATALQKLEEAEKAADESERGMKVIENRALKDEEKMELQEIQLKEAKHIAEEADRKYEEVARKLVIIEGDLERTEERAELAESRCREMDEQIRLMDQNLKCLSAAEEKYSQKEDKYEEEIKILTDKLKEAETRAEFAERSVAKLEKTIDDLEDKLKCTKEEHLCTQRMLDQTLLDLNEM

For orientation: IC50 means the concentration that gives 50% inhibition. Higher therefore signals weaker potency in that assay. Regarding `CCN(CC)CCCn1c(C)c(/C=C/C(=O)N2CCN(CCc3cccc(F)c3)CC2)c2cc(OC)ccc21` [Compound 2026, (E)-3-(1-(3-(diethylamino)propyl)-5-methoxy-2-methyl-1H-indol-3-yl)-1-(4-(3-fluorophenethyl)piperazin-1-yl)prop-2-en-1-one], the IC50 with SK-Mel-28 melanoma cells worked out at 1.7 µM; with A549 lung (NSLC) cells, 3.4 µM; in test [1], 4.1 µM; in test [2], 9.8 µM; in test [3], 4.3 µM; in test [4] it was 5.2 µM. Besides, the IC50 in test [5] is 2.5 µM. In addition, the “Effect on Tm5NM1 function (protection of actin filaments from depolymerization)” value at Tm5NM1 is “interacts with and impairs Tm5NM1 function”.
